Among the data in paper PMC2966118 (The Journal of Biological Chemistry, 2010) are EC50 values, retold here.

Usually EC50 stands for the concentration that produces a half-maximal response.

The target of the assay is human recombinant TPC2 (hTPC2, HA-HsTPC2) (Homo sapiens, UniProt Q8NHX9). As to the kind of experiment: single-channel recording in planar lipid bilayer, open probability. The format is biochemical.
human recombinant TPC2 (hTPC2, HA-HsTPC2), sequence (Q8NHX9 whole entry): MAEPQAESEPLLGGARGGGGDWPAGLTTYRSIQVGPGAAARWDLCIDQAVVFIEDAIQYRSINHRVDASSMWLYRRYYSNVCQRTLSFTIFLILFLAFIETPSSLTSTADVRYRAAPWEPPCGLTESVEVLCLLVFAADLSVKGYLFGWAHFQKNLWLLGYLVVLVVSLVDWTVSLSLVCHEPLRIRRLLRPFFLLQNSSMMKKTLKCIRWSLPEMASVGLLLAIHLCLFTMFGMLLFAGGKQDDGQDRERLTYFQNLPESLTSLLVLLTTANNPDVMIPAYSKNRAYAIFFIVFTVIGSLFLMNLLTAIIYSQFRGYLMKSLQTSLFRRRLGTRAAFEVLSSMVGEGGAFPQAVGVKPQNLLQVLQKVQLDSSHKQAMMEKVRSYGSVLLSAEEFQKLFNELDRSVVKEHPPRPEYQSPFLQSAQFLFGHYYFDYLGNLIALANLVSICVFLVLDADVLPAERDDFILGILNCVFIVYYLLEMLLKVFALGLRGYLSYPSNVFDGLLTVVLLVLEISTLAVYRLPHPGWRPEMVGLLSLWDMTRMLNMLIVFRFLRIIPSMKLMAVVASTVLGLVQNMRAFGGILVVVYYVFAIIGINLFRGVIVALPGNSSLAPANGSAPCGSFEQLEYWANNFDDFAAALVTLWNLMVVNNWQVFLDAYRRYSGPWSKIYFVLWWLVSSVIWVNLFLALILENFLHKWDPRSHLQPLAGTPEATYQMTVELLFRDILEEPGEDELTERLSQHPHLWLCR

On to `Nc1ncnc2c1ncn2[C@@H]1O[C@H](COP(=O)(O)OP(=O)(O)OC[C@H]2O[C@@H]([n+]3cccc(C(=O)O)c3)[C@H](O)[C@@H]2O)[C@@H](O)[C@H]1OP(=O)(O)O` [NAADP], for which the EC50 came out at 500 nM.
